These results are taken from patent publication US20120142672A1, “HETEROCYCLIC COMPOUND AND USE THEREOF” (priority 2009, published 2012).

For orientation: IC50 means the concentration at which inhibition is half-maximal.

Like-named read-outs stand apart in the source and are kept apart here.

This experiment has as its system Aβ42 production. Nature of the experiment: Measurement of amyloid β production inhibition rate using primary nerve cell. The class given is cell-based. The following applies: primary nerve cells from cerebral cortex of SD rat fetus, cultured 3 days with compound, sandwich ELISA BNT77-BC05 of culture supernatant, read-out: Aβ42 production inhibitory activity IC50. The method, then:
(1) Measurement of Amyloid β Production Inhibition Rate Using Primary Nerve Cell
The primary nerve cells were collected from the cerebral cortex of rat fetus (CLEA Japan, Inc.: SD rat, fetal life 17 days of age), and suspended in a neurobasal medium containing B27 supplement, L-glutamine, penicillin-streptomycin (manufactured by Invitrogen) at 500,000 cells/mL. Then, the suspension was seeded in poly L-lysine-coated 96 well plate (manufactured by SUMITOMO BAKELITE) by 100 μL, and cultured at 37° C., 5% CO2 for 7 days. The medium was completely removed, and a new neurobasal medium was added at 75 μL/well. Thereto was added (75 μL/well) a neurobasal medium supplemented with a 2-fold measurement concentration of an evaluation target compound, and the cells were cultured for 3 days. The culture supernatant was collected from each well, diluted as appropriate, applied to sandwich ELISA between BNT77 antibody-BA27 antibody (for Aβ40) and sandwich ELISA between BNT77 antibody-BC05 antibody (for Aβ42), and the amounts of Aβ40 and Aβ42 were measured.
The amyloid β production inhibition rate (%) of the compound was calculated by the following formula.
(1−(amyloid β production amount with addition of compound)/(amyloid β production amount without addition of compound))×100

As for `COc1cc(-c2nnc3n2CCCC3c2ccc(Cl)c(Cl)c2)ccc1-c1cnc(C)o1` (single isomer, unassigned; (+)) [Example 2, (+)-8-(3,4-dichlorophenyl)-3-[3-methoxy-4-(2-methyl-1,3-oxazol-5-yl)phenyl]-5,6,7,8-tetrahydro[1,2,4]triazolo[4,3-a]pyridine], the IC50 is 34 nM.
As to `COc1cc(-c2nnc3n2CCCC3c2ccc(Cl)c(Cl)c2)ccc1-c1cnc(C)o1` (centres unmarked) [Example 1, 8-(3,4-dichlorophenyl)-3-[3-methoxy-4-(2-methyl-1,3-oxazol-5-yl)phenyl]-5,6,7,8-tetrahydro[1,2,4]triazolo[4,3-a]pyridine], the IC50 came to 90 nM.
Consider `COc1cc(-c2nnc3n2CCCC3c2ccccc2C(F)(F)F)ccc1-c1cnc(C)o1` (centres unmarked) [Example 8, 3-[3-methoxy-4-(2-methyl-1,3-oxazol-5-yl)phenyl]-8-[2-(trifluoromethyl)phenyl]-5,6,7,8-tetrahydro[1,2,4]triazolo[4,3-a]pyridine], for which the half-maximal inhibitory concentration (IC50) (Rattus norvegicus, 72 h) worked out at 88 nM.
Same read-out and setting: as for `COc1cc(-c2nc3n(n2)CCCC3c2ccccc2C(F)(F)F)ccc1-c1cnc(C)o1` (centres unmarked) [Example 12, 2-[3-methoxy-4-(2-methyl-1,3-oxazol-5-yl)phenyl]-8-[2-(trifluoromethyl)phenyl]-5,6,7,8-tetrahydro[1,2,4]triazolo[1,5-a]pyridine], the figure is 150 nM.
For `COc1cc(-c2nnc3n2CCCCC3c2ccc(Cl)c(Cl)c2)ccc1-c1cnc(C)o1` (centres unmarked) [Example 15, 9-(3,4-dichlorophenyl)-3-[3-methoxy-4-(2-methyl-1,3-oxazol-5-yl)phenyl]-6,7,8,9-tetrahydro-5H-[1,2,4]triazolo[4,3-a]azepine], under “Rattus norvegicus, 72 h”, the half-maximal inhibitory concentration (IC50) turned out to be 170 nM.
For `COc1cc(-c2nnc3n2CCCC3Oc2ccc(Cl)c(Cl)c2)ccc1-c1cnc(C)o1` (centres unmarked) [Example 25, 8-(3,4-dichlorophenoxy)-3-[3-methoxy-4-(2-methyl-1,3-oxazol-5-yl)phenyl]-5,6,7,8-tetrahydro[1,2,4]triazolo[4,3-a]pyridine], the half-inhibitory concentration (IC50) (Rattus norvegicus, 72 h) is 88 nM.
Still for that read-out and setting: as for `COc1cc(-c2nnc3n2CCCC3c2ccc(F)cc2C(F)(F)F)ccc1-c1cnc(C)o1` (centres unmarked) [Example 28, 8-[4-fluoro-2-(trifluoromethyl)phenyl]-3-[3-methoxy-4-(2-methyl-1,3-oxazol-5-yl)phenyl]-5,6,7,8-tetrahydro[1,2,4]triazolo[4,3-a]pyridine], the figure is 200 nM.
The same measure, in the same setting: as for `COc1cc(-c2nnc3n2CCC[C@@H]3c2ccc(Cl)cc2C(F)(F)F)ccc1-c1cnc(C)o1` [Example 34, (R)-(+)-8-[4-chloro-2-(trifluoromethyl)phenyl]-3-[3-methoxy-4-(2-methyl-1,3-oxazol-5-yl)phenyl]-5,6,7,8-tetrahydro[1,2,4]triazolo[4,3-a]pyridine], the figure is 42 nM.
